From article PMC11249646, “Small-Molecule Disruptors of the Interaction between Calcium- and Integrin-Binding Protein 1 and Integrin αIIbβ3 as Novel Antiplatelet Agents” (ACS Pharmacology & Translational Science, 2024)
Where two headings read alike, the source gives them in different places.

How the values were obtained:
Type in all cases: binding
[1] = biological target: T1, GST-CIB1 : F-scrambled peptide (Homo sapiens, UniProt Q99828); assay: FP scrambled-peptide counter screen, 384-well format; conditions: F-scrambled peptide; for IC50: read-out: 384-well COUNTERSCREEN IC50; for 384-well COUNTERSCREEN Confirm?: *: Curve in opposite direction
T1 construct: made in house; host or cells: BL-21 plus RIL cells (E. coli)
T1 sequence (Q99828 1-191): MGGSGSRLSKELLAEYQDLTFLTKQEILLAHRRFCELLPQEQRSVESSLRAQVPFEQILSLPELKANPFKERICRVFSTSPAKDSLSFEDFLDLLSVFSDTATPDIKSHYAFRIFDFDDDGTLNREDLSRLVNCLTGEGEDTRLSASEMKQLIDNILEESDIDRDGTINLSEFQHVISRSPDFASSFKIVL

[2] = biological target: T2, CIB1 and αIIb interaction (GST-CIB1 : F-αIIb peptide) (Homo sapiens, UniProt Q99828); assay: FP assay, 384-well format (screen); parameters: 384-well SCREEN Efficacy (%): concentration or dose not given beside the values; conditions: F-αIIb peptide; for IC50: read-out: 384-well SCREEN IC50; for 384-well SCREEN Confirm?: YES/NO
T2 construct: made in house; host or cells: BL-21 plus RIL cells (E. coli)
T2 sequence (Q99828 1-191): T1 sequence (Q99828 1-191)

[3] = biological target: T1, GST-CIB1 : F-scrambled peptide; assay: FP scrambled-peptide counter screen, 1536-well format; conditions: scrambled-peptide counterscreen; for COUNTERSCREEN Confirm?: YES/NO call; for IC50: read-out: COUNTERSCREEN IC50; for COUNTERSCREEN Curve Class: qHTS curve class
[4] = biological target: T3, CIB1 and αIIb interaction (CIB1-GST : F-αIIb peptide) (Homo sapiens, UniProt Q99828); assay: FP assay, 1536-well qHTS format (primary and confirmatory screen); conditions: for CONFIRMATORY SCREEN Confirm?: YES/NO call; for CONFIRMATORY SCREEN Curve Class: qHTS curve class; for CONFIRMATORY SCREEN Curve Class / Curve Class: negative sign = inhibitory curve; for CONFIRMATORY SCREEN Efficacy (%) / Efficacy (%): negative = inhibition
T3 construct: made in house; host or cells: BL-21 plus RIL cells (E. coli)
T3 sequence (Q99828 1-191): T1 sequence (Q99828 1-191)

[5] = confirmatory screen, read-out: CONFIRMATORY SCREEN IC50
[6] = qHTS FP screen hits, Table S2, one class per curve where COUNT > 1
[7] = qHTS FP screen hits, Table S2, read-out: IC50
[8] = qHTS primary screen hits, Table S2
[9] = qHTS primary screen hits, Table S2, read-out: IC50
[10] = qHTS primary screen hits, Table S2, several classes where COUNT > 1

Compound	384-well COUNTERSCREEN Efficacy (%) [1] [%]	IC50 [1] [µM]	384-well SCREEN Efficacy (%) [2] [%]	IC50 [2] [µM]	COUNTERSCREEN Efficacy (%) [3] [%]	COUNTERSCREEN Confirm? [3]	IC50 [3] [µM]	CONFIRMATORY SCREEN Confirm? ([4]; confirmatory screen)	CONFIRMATORY SCREEN Curve Class ([4]; confirmatory screen)	CONFIRMATORY SCREEN Efficacy (%) ([4]; confirmatory screen)	IC50 [4, 5] [µM]	Efficacy (%) ([4]; qHTS FP screen hits, Table S2)	Curve Class [4, 6]	IC50 [4, 7] [µM]	384-well SCREEN Confirm? [2]	COUNTERSCREEN Curve Class [3]	Efficacy (%) [4, 8] [%]	IC50 [4, 9] [µM]	384-well COUNTERSCREEN Confirm? [1]	Curve Class [4, 10]	also measured
O=c1sc2ccccc2c(O)c1C1CC(c2ccc(-c3ccc(Br)cc3)cc2)Cc2ccccc21 (stereo not drawn) [NCGC00262959-01]	156	25.1	87	> 120	118	YES	79.4	YES	-1.4	-49	7.1	-38	-1.2	17.8							
O=C(O)C(F)(F)F.OCc1ccc(-c2ccc3ncnc(NCc4nccs4)c3c2)o1 [NCGC00238383-01]	47	39.8	69	25.1	-16	YES		YES	-3	-52	70.8				YES	4	-70	39.8			Curve Class [4, 8]: -2.2
Cc1ccc(-c2csc(NC(=O)c3ccncc3NS(=O)(=O)c3ccc(C)cc3)n2)cc1.O=C(O)C(F)(F)F [NCGC00319008-01]	70	8.9	46	10.7	26	YES		YES	-1.2	-50		-45	-1.2	17.8	YES	4			YES*		
Cc1cc(NS(=O)(=O)c2ccc(NCCc3ccc(Cl)c(Cl)c3)cc2)no1.O=C(O)C(F)(F)F [NCGC00244100-02]	23	> 120	42	22.4	132	YES	39.8	YES	-2.4	-36		-22		22.4	YES	3			YES		
Cc1ccc(S(=O)(=O)Nc2cnccc2C(=O)Nc2nc(-c3cccc(C)c3)cs2)cc1.O=C(O)C(F)(F)F [NCGC00343524-02]	60	14.1	42	10.1	14	YES		YES	-2.1	-128	20				YES	4	-40	35.5	YES*	-2.2	
CCc1ccc(S(=O)(=O)Nc2cnccc2C(=O)Nc2nc(-c3ccccc3)cs2)cc1.O=C(O)C(F)(F)F [NCGC00344909-01]	44	> 120	40	35.5	14	YES		YES	-2.2	-82	22.4				YES	4	-57	79.4	YES	-2.2	
O=C(Nc1nc(-c2ccccc2)cs1)c1ccncc1NS(=O)(=O)c1ccccc1Cl.O=C(O)C(F)(F)F [NCGC00344943-01]	31	> 120	32	15.8	25	YES		YES	-1.1	-98					YES	4			YES		
CC(O)c1ccc(-c2ccc3ncnc(NCc4nccs4)c3c2)o1.O=C(O)C(F)(F)F (stereo not drawn) [NCGC00238382-01]	36	17.7	61	14.1	0	YES		YES	-3	-53		-63	-2.2	39.8	YES	4			YES		
CCOC(=O)N1CCN([N+]([O-])=NOc2ccc([N+](=O)[O-])cc2[N+](=O)[O-])CC1 [NCGC00165815-03]	48	15.8	61	1.8	-56	YES	44.7	YES	-1.2	-62	6.3				YES	-2.2			YES		
Cc1ccc(S(=O)(=O)Nc2cnccc2C(=O)Nc2nc(-c3ccc(Cl)cc3)cs2)cc1.O=C(O)C(F)(F)F [NCGC00318981-01]	60	28.2	45	> 120	53	YES	89.1	YES	-1.2	-69	28.2					3	-35	31.6		-1.2	
